Results: US8450357B2, “Compositions comprising an aryl pyrazole and/or a formamidine, methods and uses thereof” (Merial Limited, priority 2008, dated 2013)

Legend:
[1] = system: adult Rhipicephalus sanguineus; assay: Tick motility petri dish assay with imaging system, amitraz and fipronil; type: in vivo; settings: for Geometric Mean of movement values for stimulated ticks: amitraz 0.32 ug/cm^2, fipronil serial dilutions 1.3-0.005 ug/cm^2; for motility of ticks over time: compound alone, compared to solvent control treated ticks
Excerpt: An imaging system was used for the automated analysis of tick motility in response to amitraz and fipronil treatments to remove the subjective interpretation of manual test evaluation. The study was designed to evaluate the affect of amitraz and fipronil alone and in combination, as compared to a control, on the motility of ticks over time.
The motility of adult Rhipicephalus sanguineus was compared for amitraz-only, fipronil-only and the combination of fipronil and amitraz in a petri dish assay using the imaging system. The assay was run using a fixed dilution of amitraz (0.32 ug/cm^2), with serial dilutions of fipronil (1.3, 0.33, 0.08, 0.02, or 0.005 ug/cm^2) alone and in combination with the fixed dilution of amitraz. Six independent replications were conducted.
A plate holding four petri dishes was custom made for the imaging system. At each time point the plate holding four petri dishes was placed on the imaging system and evaluated for motility. The set up of the plate for each evaluation is illustrated below in Table 21.
For Dish A1, a volume of 625 μL of ethanol was used to treat the tops and 625 μL to treat the bottoms of the petri dish. All solutions were formulated in 100% ethanol. For Dish A2, a volume of 125 μL of the 25 ppm amitraz solution was used to treat the tops and 125 μL to treat the bottoms of the petri dish. For Dish B1, the top and bottom portions of the petri dishes were each treated with 500 μL of the 25 ppm solution of fipronil (serially diluted for each Plate 1-5) and 125 μL of the 25 ppm solution of amitraz. And for Dish B2, each of the top and bottom portions of the petri dishes were treated with 500 μL of the 25 ppm solution of fipronil (serially diluted for each Plate 1-5). After application of the corresponding solution to the petri dishes, the petri dishes were left open under a fan and allowed to dry for 1 hour. After drying, the dishes were infested with 10 adult Rhipicephalus sanguineus (supplied by Ecto Services, Inc. Henderson, N.C.). The ticks were left undisturbed for 1 hour before evaluation in the imaging system. Between evaluations ticks were maintained at approximately 21° C. and 60% RH.
After the initial hour, each Plate 1-5 was sequentially placed into the imaging system for evaluation. Image processing calculates the change in movement of the ticks between each image. The value generated is equal to the movement in each petri dish during the image time. The ticks in each individual petri dish were then stimulated to move by breathing/exhaling into the plate. After stimulation, the plates were placed back into the imaging system for another evaluation to determine if the treatment affected the tick's ability to move. Image capture was repeated as in the pre-stimulated evaluation.
Evaluations were made at 1, 4, 18, and 24 hours post infest (hpi) for 3 trials. For 3 trials the 4 hour evaluation was not done and for 3 trials the third evaluation was done at 21 to 22 hours. Raw data values were exported from the imaging system and comparative analysis of treatments over time was conducted.

[2] = Solubility of amitraz in various solvents; type: physicochemical
Method: Solutions of amitraz in certain solvents at high concentration result in the appearance of crystals over time. […] The solubility of amitraz in butyl acetate is lower then in anisole, MIK and ethyl benzoate. […] Additionally, when amitraz (25%) in butyl acetate formulations were stored at 50° C. in a chamber, they evaporated slightly. […] Again, lowering concentration to 20% and addition of co-solvents with higher solubility of amitraz avoided crystallization of amitraz. Unexpectedly, this addition of co-solvents caused the effects described below in Example 9.

[3] = system: fleas (Ctenocephalides felis); assay: Study B: flea efficacy of Compound 1 spot-on formulations in dogs; type: in vivo
Excerpt: A separate clinical efficacy study in dogs was designed with an untreated control group and 5 test groups treated with compound 1. Each group had six dogs. Test articles were formulated as topical spot-on solutions containing compound 1, 10-20% w/v in a solvent or a combination of solvents as described above. Dogs were infested with approximately 50 ticks (Rhipicephalus sanguineus) on days −1, 7, 14, 21, 28, 35 and 42. Dogs were also infested with approximately 100 fleas (Ctenocephalides felis) on days −1, 8, 15, 22, 29, 36, and 43. Treatment was applied by parting the hair and applying the formulation directly onto the skin on one spot at the midline of the neck, between the base of the skull and the shoulder blades. […] […] It should be noted that Study A and Study B were conducted at different times and locations, and the results of each clinical study may differ from the other based on various environmental factors. Thus, the results of one clinical study should not be compared with those of another due to these factors.

## Cc1ccc(/N=C/N(C)/C=N/c2ccc(C)cc2C)c(C)c1 [Amitraz, amitraz]
[1]; 21-22 hours post infestation
  Geometric Mean of movement values for stimulated ticks: 30,300
[1]; 1 hours post infestation
  Geometric Mean of movement values for stimulated ticks: 56,900
[1]; 4 hours post infestation
  Geometric Mean of movement values for stimulated ticks: 44,300
[1]; 18 hours post infestation
  Geometric Mean of movement values for stimulated ticks: 33,200
[1]; 24 hours post infestation
  Geometric Mean of movement values for stimulated ticks: 34,300
[1]
  motility of ticks over time: increase in motility
[2]; in Acetone
  Solubility of amitraz (at room temperature, %): 37.87%
[2]; in Anisole (methoxybenzene)
  Solubility of amitraz (at room temperature, %): 45.54%
[2]; in Benzyl acetate
  Solubility of amitraz (at room temperature, %): 21.85%
[2]; in Benzyl benzoate
  Solubility of amitraz (at room temperature, %): 33.30%
[2]; in Butyl acetate
  Solubility of amitraz (at room temperature, %): 27.10%
[2]; in Ethyl benzoate
  Solubility of amitraz (at room temperature, %): 39.43%
[2]; in Methyl isobutyl ketone
  Solubility of amitraz (at room temperature, %): 36.72%

## Cc1c([S+]([O-])C(F)(Cl)Cl)c(C#N)nn1-c1c(F)cc(C(F)(F)F)cc1Cl (stereo not shown) [Compound 1, 3-cyano-1-(2-chloro-6-fluoro-4-trifluoromethylphenyl)-4-dichlorofluoromethylsulfinyl-5-methyl-1H-pyrazole]
[3]; Day 2, Trt. Group 2: 0.1 ml/kg (10 mg/kg) in Triacetin
  % Efficacy against fleas: 100%
[3]; Day 2, Trt. Group 3: 0.2 ml/kg (20 mg/kg) in Triacetin
  % Efficacy against fleas: 100%
[3]; Day 2, Trt. Group 4: 10 mg/kg in Diisopropyl adipate
  % Efficacy against fleas: 100%
[3]; Day 2, Trt. Group 5: 10 mg/kg in Diethylene glycol monoethyl ether (transcutol)
  % Efficacy against fleas: 100%
[3]; Day 2, Trt. Group 6: 10 mg/kg in Triacetin/diisopropyl adipate
  % Efficacy against fleas: 100%
[3]; Day 9, Trt. Group 2: 0.1 ml/kg (10 mg/kg) in Triacetin
  % Efficacy against fleas: 100%
[3]; Day 9, Trt. Group 3: 0.2 ml/kg (20 mg/kg) in Triacetin
  % Efficacy against fleas: 100%
[3]; Day 9, Trt. Group 4: 10 mg/kg in Diisopropyl adipate
  % Efficacy against fleas: 100%
[3]; Day 9, Trt. Group 5: 10 mg/kg in Diethylene glycol monoethyl ether (transcutol)
  % Efficacy against fleas: 100%
[3]; Day 9, Trt. Group 6: 10 mg/kg in Triacetin/diisopropyl adipate
  % Efficacy against fleas: 100%
[3]; Day 16, Trt. Group 2: 0.1 ml/kg (10 mg/kg) in Triacetin
  % Efficacy against fleas: 100%
[3]; Day 16, Trt. Group 3: 0.2 ml/kg (20 mg/kg) in Triacetin
  % Efficacy against fleas: 100%
[3]; Day 16, Trt. Group 4: 10 mg/kg in Diisopropyl adipate
  % Efficacy against fleas: 100%
[3]; Day 16, Trt. Group 5: 10 mg/kg in Diethylene glycol monoethyl ether (transcutol)
  % Efficacy against fleas: 100%
[3]; Day 16, Trt. Group 6: 10 mg/kg in Triacetin/diisopropyl adipate
  % Efficacy against fleas: 100%
[3]; Day 23, Trt. Group 2: 0.1 ml/kg (10 mg/kg) in Triacetin
  % Efficacy against fleas: 99.8%
[3]; Day 23, Trt. Group 3: 0.2 ml/kg (20 mg/kg) in Triacetin
  % Efficacy against fleas: 99.8%
[3]; Day 23, Trt. Group 4: 10 mg/kg in Diisopropyl adipate
  % Efficacy against fleas: 100%
[3]; Day 23, Trt. Group 5: 10 mg/kg in Diethylene glycol monoethyl ether (transcutol)
  % Efficacy against fleas: 99.8%
[3]; Day 23, Trt. Group 6: 10 mg/kg in Triacetin/diisopropyl adipate
  % Efficacy against fleas: 99.8%
[3]; Day 30, Trt. Group 2: 0.1 ml/kg (10 mg/kg) in Triacetin
  % Efficacy against fleas: 99.7%
[3]; Day 30, Trt. Group 3: 0.2 ml/kg (20 mg/kg) in Triacetin
  % Efficacy against fleas: 100%
[3]; Day 30, Trt. Group 4: 10 mg/kg in Diisopropyl adipate
  % Efficacy against fleas: 100%
[3]; Day 30, Trt. Group 5: 10 mg/kg in Diethylene glycol monoethyl ether (transcutol)
  % Efficacy against fleas: 100%
[3]; Day 30, Trt. Group 6: 10 mg/kg in Triacetin/diisopropyl adipate
  % Efficacy against fleas: 100%
[3]; Day 37, Trt. Group 2: 0.1 ml/kg (10 mg/kg) in Triacetin
  % Efficacy against fleas: 99.8%
[3]; Day 37, Trt. Group 3: 0.2 ml/kg (20 mg/kg) in Triacetin
  % Efficacy against fleas: 100%
[3]; Day 37, Trt. Group 4: 10 mg/kg in Diisopropyl adipate
  % Efficacy against fleas: 98.9%
[3]; Day 37, Trt. Group 5: 10 mg/kg in Diethylene glycol monoethyl ether (transcutol)
  % Efficacy against fleas: 100%
[3]; Day 37, Trt. Group 6: 10 mg/kg in Triacetin/diisopropyl adipate
  % Efficacy against fleas: 100%
[3]; Day 44, Trt. Group 2: 0.1 ml/kg (10 mg/kg) in Triacetin
  % Efficacy against fleas: 100%
[3]; Day 44, Trt. Group 3: 0.2 ml/kg (20 mg/kg) in Triacetin
  % Efficacy against fleas: 100%
[3]; Day 44, Trt. Group 4: 10 mg/kg in Diisopropyl adipate
  % Efficacy against fleas: 99.6%
[3]; Day 44, Trt. Group 5: 10 mg/kg in Diethylene glycol monoethyl ether (transcutol)
  % Efficacy against fleas: 100%
[3]; Day 44, Trt. Group 6: 10 mg/kg in Triacetin/diisopropyl adipate
  % Efficacy against fleas: 100%
[3]; Day 51, Trt. Group 2: 0.1 ml/kg (10 mg/kg) in Triacetin
  % Efficacy against fleas: 99.8%
[3]; Day 51, Trt. Group 3: 0.2 ml/kg (20 mg/kg) in Triacetin
  % Efficacy against fleas: 99.7%
[3]; Day 51, Trt. Group 4: 10 mg/kg in Diisopropyl adipate
  % Efficacy against fleas: 98.5%
[3]; Day 51, Trt. Group 5: 10 mg/kg in Diethylene glycol monoethyl ether (transcutol)
  % Efficacy against fleas: 100%
[3]; Day 51, Trt. Group 6: 10 mg/kg in Triacetin/diisopropyl adipate
  % Efficacy against fleas: 100%
[3]; Day 58, Trt. Group 2: 0.1 ml/kg (10 mg/kg) in Triacetin
  % Efficacy against fleas: 99.6%
[3]; Day 58, Trt. Group 3: 0.2 ml/kg (20 mg/kg) in Triacetin
  % Efficacy against fleas: 99.0%
[3]; Day 58, Trt. Group 4: 10 mg/kg in Diisopropyl adipate
  % Efficacy against fleas: 96.7%
[3]; Day 58, Trt. Group 5: 10 mg/kg in Diethylene glycol monoethyl ether (transcutol)
  % Efficacy against fleas: 100%
[3]; Day 58, Trt. Group 6: 10 mg/kg in Triacetin/diisopropyl adipate
  % Efficacy against fleas: 98.8%

## N#Cc1nn(-c2c(Cl)cc(C(F)(F)F)cc2Cl)c(N)c1[S+]([O-])C(F)(F)F (stereo not shown) [fipronil, 5-amino-3-cyano-1-(2,6-dichloro-4-trifluoromethylphenyl)-4-trifluoromethylsulfinylpyrazole]
[1]; 21-22 hours post infestation
  Geometric Mean of movement values for stimulated ticks: 21,200
[1]; 1 hours post infestation
  Geometric Mean of movement values for stimulated ticks: 51,000
[1]; 4 hours post infestation
  Geometric Mean of movement values for stimulated ticks: 29,000
[1]; 18 hours post infestation
  Geometric Mean of movement values for stimulated ticks: 17,400
[1]; 24 hours post infestation
  Geometric Mean of movement values for stimulated ticks: 19,700
[1]
  motility of ticks over time: reduction in motility
